Where “and” joins values, the source holds several entries; their conditions need not be identical. Identical values can stand only once.
Columns and labels:
[1] = tested on: Phaedon cochleariae; test: Phaedon cochleariae spray test; details: 100 g/ha; after 7 days
[2] = tested on: Musca domestica; test: Musca domestica test; format: in vivo; details: 100 ppm; adult houseflies; after 2 days
Method: (§1) • Solvent: dimethyl sulfoxide
To produce a suitable active ingredient formulation, 10 mg of active ingredient are mixed with 0.5 ml of dimethyl sulfoxide, and the concentrate is diluted with water to the desired concentration.
Vessels containing a sponge treated with sugar solution and the active ingredient formulation of the desired concentration are populated with 10 adult houseflies (Musca domestica).

[3] = tested on: Boophilus microplus; test: Boophilus microplus injection test; format: in vivo; details: 20 μg/animal; assessed after 7 days
Method: as §1
1 μl of the active ingredient solution is injected into the abdomen of 5 engorged adult female cattle ticks (Boophilus microplus). The animals are transferred into dishes and kept in a climate-controlled room.

[4] = tested on: Spodoptera frugiperda; test: Spodoptera frugiperda spray test; format: in vivo; details: 100 g/ha; after 7 days
[5] = tested on: Ctenocephalides felis; test: Ctenocephalides felis in vitro contact test with adult cat fleas; format: in vivo; details: application rate 5 μg/cm^2 (=500 g/ha); after 48 h; dead or moribund fleas
Method: (§2) For the coating of the test tubes, 9 mg of active ingredient are first dissolved in 1 ml of acetone p.a. and then diluted to the desired concentration with acetone p.a. 250 μl of the solution are distributed homogeneously on the inner walls and the base of a 25 ml glass tube by turning and rocking on an orbital shaker (rocking rotation at 30 rpm for 2 h). With 900 ppm of active ingredient solution and internal surface area 44.7 cm^2, given homogeneous distribution, an area-based dose of 5 μg/cm^2 is achieved.
After the solvent has evaporated off, the tubes are populated with 5-10 adult cat fleas (Ctenocephalides felis), sealed with a perforated plastic lid and incubated in a horizontal position at room temperature and ambient humidity. After 48 h, efficacy is determined. To this end, the tubes are stood upright and the fleas are knocked to the base of the tube. Fleas which remain motionless at the base or move in an uncoordinated manner are considered to be dead or moribund.
100% efficacy means that all the fleas were dead or moribund. 0% efficacy means that no fleas were harmed.

[6] = tested on: Tetranychus urticae; test: Tetranychus urticae spray test, OP-resistant (bean leaf discs); format: in vivo; details: 100 g/ha; after 6 days
Method: After 6 days, the efficacy in % is determined.

[7] = tested on: Ctenocephalides felis; test: Ctenocephalides felis oral test; format: in vivo; details: 100 ppm in citrated cattle blood; after 2 days
Method: • Solvent: Dimethyl Sulfoxide
To produce a suitable active ingredient formulation, 10 mg of active ingredient are mixed with 0.5 ml of dimethyl sulfoxide. Dilution with citrated cattle blood gives the desired concentration.
About 20 unfed adult cat fleas (Ctenocephalides fells) are placed into a chamber which is closed at the top and bottom with gauze. A metal cylinder whose bottom end is closed with parafilm is placed onto the chamber. The cylinder contains the blood/active ingredient formulation, which can be imbibed by the fleas through the parafilm membrane.

[8] = tested on: Rhipicephalus sanguineus; test: Rhipicephalus sanguineus in vitro contact test with adult brown dog ticks; format: in vivo; details: after 48 h
Method: as §2
After the solvent has evaporated off, the tubes are populated with 5-10 adult dog ticks (Rhipicephalus sanguineus), sealed with a perforated plastic lid and incubated in a horizontal position in the dark at room temperature and ambient humidity. After 48 h, efficacy is determined. To this end, the ticks are knocked to the base of the tube and incubated on a hotplate at 45-50° C. for not more than 5 min. Ticks which remain motionless on the base or move in such an uncoordinated manner that they are unable to deliberately avoid the heat by climbing upwards are considered to be dead or moribund.
An efficacy of 100% means that all the ticks were dead or moribund. 0% efficacy means that none of the ticks were harmed.

[9] = application rate 5 μg/cm^2 (=500 g/ha), dead or moribund ticks

| Structure (SMILES) | efficacy [1] [%] | efficacy (rate of extermination) [2] [%] | efficacy (laying of fertile eggs) [3] [%] | efficacy [4] [%] | efficacy [5] [%] | efficacy [6] | efficacy (rate of extermination) [7] [%] | efficacy [8, 9] [%] | efficacy ([8]; application rate 1 μg/cm^2 (=100 g/ha)) [%] |
| --- | --- | --- | --- | --- | --- | --- | --- | --- | --- |
| CC(=O)N(C)Cc1cc(-c2cnn(-c3c(Cl)cc(C(F)(C(F)(F)F)C(F)(F)F)cc3Cl)c2)ccc1F [Ia-64] | 100 | 100 | 100 | 100 | 100 | 100% | 100 |  |  |
| O=C(NCc1cc(-c2cnn(-c3c(Cl)cc(C(F)(C(F)(F)F)C(F)(F)F)cc3OC(F)F)c2)ccc1Cl)C1CC1 [Ia-52] | 100 | 100 | 100 | 100 | 100 |  | 100 | 100 |  |
| CC(=O)NCc1cc(-c2cnn(-c3c(Cl)cc(C(F)(C(F)(F)F)C(F)(F)F)cc3OC(F)(F)F)c2)cnc1Cl [Ia-131] | 100 | 100 | 100 | 100 | 100 |  | 100 |  |  |
| C=CCN(Cc1cc(-c2cnn(-c3c(Cl)cc(C(F)(C(F)(F)F)C(F)(F)F)cc3Cl)c2)ccc1Cl)C(C)=O [Ia-113] | 100 | 100 | 100 | 100 | 100 | 90% | 100 |  |  |
| CCC(=O)NC1CCc2ccc(-c3cnn(-c4c(Cl)cc(C(F)(C(F)(F)F)C(F)(F)F)cc4OC(F)F)c3)cc21 (stereo not drawn) [I-Tc-03] |  |  | 100 | 100 | 100 | 100% | 100 | 100 |  |
| CCC(=O)N(C)Cc1cc(-c2cnn(-c3c(Cl)cc(C(F)(C(F)(F)F)C(F)(F)F)cc3Cl)c2)ccc1F [Ia-71] | 100 | 100 | 100 | 100 | 100 | 100% | 100 |  |  |
| CCC(=O)NCc1cc(-c2cnn(-c3c(Cl)cc(C(F)(C(F)(F)F)C(F)(F)F)cc3Cl)c2)ccc1F [Ia-30] |  | 100 | 100 | 100 | 100 |  | 100 | 100 |  |
| CC(=O)NCc1cccc(-c2cnn(-c3c(C)cc(C(F)(C(F)(F)F)C(F)(F)F)cc3Cl)c2)c1 [Ia-68] | 100 | 100 | 100 | 83 |  | 100% | 100 | 80 |  |
| N#Cc1cc(C(F)(C(F)(F)F)C(F)(F)F)cc(Cl)c1-n1cc(-c2ccc(F)c(CNC(=O)C3CC3)c2)cn1 [Ia-107] | 100 | 100 | 100 | 100 | 100 | 100% | 100 |  |  |
| CCC(=O)NCc1cc(-c2cnn(-c3c(Cl)cc(C(F)(C(F)(F)F)C(F)(F)F)cc3OC(F)(F)F)c2)ccc1F [Ia-26] | 100 | 100 | 100 | 100 |  | 90% | 100 | 80 |  |
| CCC(=O)NCc1c(F)ccc(-c2cnn(-c3c(Cl)cc(C(F)(C(F)(F)F)C(F)(F)F)cc3OC(F)F)c2)c1F [Ia-157] | 100 | 100 | 100 | 100 |  | 90% | 100 | 100 |  |
| CCC(=O)NCc1cccc(-c2cnn(-c3c(C)cc(C(F)(C(F)(F)F)C(F)(F)F)cc3Cl)c2)c1 [Ia-69] | 100 | 100 | 100 | 100 | 100 |  | 100 |  | 80 |
| O=C(NCc1cc(-c2cnn(-c3c(Cl)cc(C(F)(C(F)(F)F)C(F)(F)F)cc3C(F)(F)F)c2)ccc1Cl)C1CC1 [Ia-54] | 100 | 100 | 100 | 100 | 80 |  | 100 | 100 |  |
| CCC(=O)N(C)Cc1cc(-c2cnn(-c3c(Cl)cc(C(F)(C(F)(F)F)C(F)(F)F)cc3Cl)c2)ccc1Cl [Ia-32] | 100 |  | 100 | 100 | 100 | 100% | 100 | 80 |  |
| CCOCN(Cc1cc(-c2cnn(-c3c(Cl)cc(C(F)(C(F)(F)F)C(F)(F)F)cc3Cl)c2)ccc1Cl)C(C)=O [Ia-117] | 100 | 100 | 100 | 100 | 100 |  | 100 |  |  |
| CC(=O)N(C)Cc1cc(-c2cnn(-c3c(Cl)cc(C(F)(C(F)(F)F)C(F)(F)F)cc3Cl)c2)cnc1Cl [Ia-73] | 100 | 100 | 100 | 100 | 100 | 100% and 90% | 100 |  |  |
| O=C(CC(F)(F)F)NCc1cc(-c2cnn(-c3c(Cl)cc(C(F)(C(F)(F)F)C(F)(F)F)cc3OC(F)(F)F)c2)ccc1F [Ia-19] | 100 | 100 | 100 | 100 |  | 90% | 100 | 100 |  |
| CC(=O)NCc1cc(-c2cnn(-c3c(Cl)cc(C(F)(C(F)(F)F)C(F)(F)F)cc3Cl)c2)cnc1Cl [Ia-130] | 100 | 100 | 100 | 100 | 100 | 90% | 100 |  |  |
| Cc1cc(C(F)(C(F)(F)F)C(F)(F)F)cc(C)c1-n1cc(-c2ccc(F)c(CNC(=O)C3CC3)c2)cn1 [Ia-04] | 100 | 100 | 100 | 100 |  | 100% | 100 | 100 |  |
| CC(=O)NCc1c(F)ccc(-c2cnn(-c3c(Cl)cc(C(F)(C(F)(F)F)C(F)(F)F)cc3OC(F)F)c2)c1F [Ia-158] | 100 | 100 | 100 | 100 | 100 | 100% | 100 |  |  |
| CC(C)C(=O)NCc1cc(-c2cnn(-c3c(Cl)cc(C(F)(C(F)(F)F)C(F)(F)F)cc3C(F)F)c2)ccc1F [Ia-60] | 100 | 100 | 100 | 100 | 100 | 100% | 100 |  |  |
| CSc1cc(C(F)(C(F)(F)F)C(F)(F)F)cc(Cl)c1-n1cc(-c2ccc(F)c(CNC(C)=O)c2)cn1 [Ia-07] | 100 | 100 | 100 | 83 | 100 | 100% | 100 |  |  |

Reference: patent US10357036B2, “Compounds for controlling arthropods” (priority 2015, dated 2019)
